Reference: US20250157571A1, “Methods, Apparatus, and Systems for Determining the Functional Microbial Niche and Identifying Interventions in Complex Hetergeneous Communities” (The Regents of the University of California, priority 2022, published 2025)
“Also recorded” adds a separate entry of the source.

Legend:
Assay type in all cases: cell-based
[1] = tested on: 16-member SynCom; assay: Targeted interventions in the SynCom (prebiotic metabolite or probiotic strain addition), metagenomics relative abundance; details: 7 days; for change in relative abundance in the community upon metabolite addition: SynCom in 0.1×R2A + metabolite, three concentrations; for relative abundance of primary targets (high TE for import protein) after metabolite addition / relative abundance of secondary targets (guild competitors) after metabolite addition: SynCom in 0.1×R2A + substrate vs 0.1×R2A control
Experimental: Optical density readings at 600 nm (OD600), from isolates pre-cultures were taken with a Molecular Devices SpectraMax M3 Multi-Mode Microplate Reader (VWR, cat #89429-536). Precultures were diluted to a starting OD600 of 0.02 in 5 mL 0.1×R2A. The SynCom was assembled in large volumes to minimize pipetting error and maximize reproducibility. Briefly, 1 mL of each normalized culture (OD600=0.02) was diluted in a final volume of 250 mL 0.1×R2A and spread into 20 mL aliquots in Falcon tubes. Falcon tubes containing the SynCom inoculum were then incubated at 30° C. for 7 days, in aerobic conditions, in four biological replicates. After 7 days of culture, the SynCom samples were harvested by centrifugation and pellets were immediately treated for multi-omics analysis as detailed below (DNA-, RNA- and metaRibo-Seq).
For targeted modifications experiments carried out in the SynCom, the SynCom was assembled and cultured as described above, with modifications. Specific isolates were omitted from the SynCom assembly for the dropout experiments, as described in FIGS. 2d and 2e. Alternatively, concentrated stocks of either Burkholderia, Chitinophaga, Mucilaginibacter or Rhizobium were added as probiotics to the SynCom. Metabolites from concentrated, filter-sterilized stocks of the desired substrates were added to the medium for the prebiotics experiments. Modified SynCom were then incubated at 30° C. for 7 days, in aerobic conditions, in two biological replicates. After 7 days of culture, the modified SynCom samples were harvested by centrifugation and pellets were stored at −80° C. prior to metagenomics analysis.
DNA and RNA from SynCom samples were extracted from leftover lysates from metaRibo-Seq sample preparation, stored in Trizol at −80 C. DNA from soil samples was extracted using ZymoBIOMICS DNA miniprep kit (Zymo). DNA-Seq libraries were prepared using Nextera XT library preparation kit with 700 pg DNA input per sample and 6:30 min tagmentation at 55° C. and barcoded using Nextera XT indexes (Illumina). RNA was extracted using RNeasy mini kit (Qiagen), and rRNA was removed using QIAseq FastSelect-5S/16S/23S kit (Qiagen). RNA-Seq libraries were prepared using KAPA RNA HyperPrep kit (Roche) and barcoded using TruSeq indexes (Illumina). Amplification was followed in real time using SYBR-Green and stopped when reaching a plateau.
Adapter sequences were removed from multi-omics sequencing data using TrimGalore (Cutadapt version 1.18), and quality controlled using FastQC version 0.11.9 (Andrews et al. 2010). Trimmed reads were aligned to a custom SynCom database using bowtie2 version 2.3.2. Gene count tables were obtained using Woltka version 0.1.1 (Zhu et al. 2022). Multi-omics gene counts were normalized to reads per kilobase per million (RPKM).

[2] = tested on: Burkholderia; assay: Pre-/probiotic intervention in natural soil, shotgun metagenomics relative abundance; details: for Burkholderia's relative abundance: soil+SynCom probiotic+prebiotic versus soil+SynCom probiotic (FIG. 6)
[3] = tested on: Rhizobium and Variovorax; assay: as above; details: for relative abundance of Burkholderia's competitors Rhizobium and Variovorax: soil+SynCom probiotic+prebiotic versus soil+SynCom probiotic (FIG. 6)
Experimental: (§1) A soil associated with switchgrass lowland reference genome clone (Missaoui, Boerma, and Bouton 2005) that was sampled from a field located in Texas, USA (28.3325, −98.1175) was used. Fifty gram (50 g) of soil was added to 250 mL of 0.1×R2A culture medium or 0.1×R2A+SynCom inoculum prepared as described above, and this volume was spread in 14 mL culture tubes (5 mL in each tube). 50-500 μL of concentrated, filter-sterilized stocks of the desired substrates and/or 20 μL of the SynCom isolate pure cultures diluted at an OD600 of 0.02 (i.e. approximately 8.10^5 CFU/mL) were then added. Soil samples were then grown at 30° C. for 7 days, in aerobic conditions, in two biological replicates (three replicates for reference soil sample). After 7 days of culture, the soil samples were harvested by centrifugation and pellets were stored at −80° C. prior to metagenomics analysis.
(§2) Soil samples from a switchgrass crop similar to the site from which the SynCom strains were originally isolated, were incubated in 33 different conditions: 0.1×R2A alone (soil control), with and without metabolite additions (prebiotic), and with and without individual SynCom members (probiotic, 8.10^5 CFU/mL), or the whole 16-member SynCom (probiotic consortium, 8.10^5 CFU/mL of each member) (see methods and FIG. 6). Changes in microbial community composition were analyzed by shotgun metagenomics.

[4] = tested on: Paenibacillus; assay: as above; details: natural soil in 0.1×R2A, 7 days
Experimental: as §1, §2

[5] = tested on: Mucilaginibacter; assay: as above; details: natural soil in 0.1×R2A, 7 days
Experimental: as §1, §2

[6] = tested on: Chitinophaga; assay: as above; details: natural soil in 0.1×R2A, 7 days
Experimental: as §1, §2

[7] = natural soil in 0.1×R2A, 7 days

## C/C1=C2/[N-][C@H]([C@H](CC(N)=O)[C@@]2(C)CCC(=O)NC[C@H](C)OP(=O)([O-])O[C@H]2[C@@H](O)[C@@H](n3cnc4cc(C)c(C)cc43)O[C@@H]2CO)[C@]2(C)N=C(/C(C)=C3N=C(/C=C4N=C1[C@@H](CCC(N)=O)C\4(C)C)[C@@H](CCC(N)=O)[C@]\3(C)CC(N)=O)[C@@H](CCC(N)=O)[C@]2(C)CC(N)=O.[Co+2] (stereo in doubt) [cobalamin]
[1]
  change in relative abundance in the community upon metabolite addition: did not induce any significant change

## N[C@@H](CSSC[C@H](N)C(=O)O)C(=O)O [cystine]
[1]
  change in relative abundance in the community upon metabolite addition: did not induce any significant change

## CSCC[C@H](N)C(=O)O [methionine]
[1]
  change in relative abundance in the community upon metabolite addition: did not induce any significant change

## O=C(CO)[C@@H](O)[C@H](O)[C@H](O)CO [fructose]
[2]; [7]
  Burkholderia relative abundance, fold change: 3.9 fold change
[2]
  Burkholderia's relative abundance: increase in Burkholderia's relative abundance
[3]; [7]
  relative abundance of Burkholderia's competitors: decrease of its closest competitors Rhizobium and Variovorax
[3]
  relative abundance of Burkholderia's competitors Rhizobium and Variovorax: decrease of its competitors Rhizobium and Variovorax

## OC[C@H]1O[C@H](O[C@H]2O[C@H](CO)[C@@H](O)[C@H](O)[C@H]2O)[C@H](O)[C@@H](O)[C@@H]1O [trehalose]
[4]
  Paenibacillus relative abundance, fold change: 5.5 fold change

## O=C[C@H](O)[C@H](O)[C@H](O)CO [ribose]
[2]
  Burkholderia's relative abundance: increase in Burkholderia's relative abundance
[3]
  relative abundance of Burkholderia's competitors Rhizobium and Variovorax: decrease of its competitors Rhizobium and Variovorax
[4]
  Paenibacillus relative abundance, fold change: 3.5 fold change
[1]
  relative abundance of primary targets (high TE for import protein) after metabolite addition: specific increase of primary targets Paenibacillus and Burkholderia; also recorded: Paenibacillus (increased), Arthobacter and Brevibacillus (not increased)
  relative abundance of secondary targets (guild competitors) after metabolite addition: specific decrease of Burkholderia's competitors Variovorax, Rhizobium, and Bradyrhizobium

## NCCCCN [putrescine]
[1]
  relative abundance of primary targets (high TE for import protein) after metabolite addition: specifically increased Paenibacillus and Rhodococcus
  relative abundance of secondary targets (guild competitors) after metabolite addition: reducing competitors Rhizobium, Bradyrhizobium, and Mucilaginibacter

## N[C@@H](CCC(=O)N[C@@H](CS)C(=O)NCC(=O)O)C(=O)O [glutathione]
[5]
  Mucilaginibacter relative abundance (in words): did not decrease Mucilaginibacter abundance
[6]
  Chitinophaga relative abundance (in words): did not increase Chitinophaga
[1]
  relative abundance of primary targets (high TE for import protein) after metabolite addition: specifically increased primary targets Burkholderia and Chitinophaga
  relative abundance of secondary targets (guild competitors) after metabolite addition: decreasing their competitors Mucilaginibacter, and Bradyrhizobium
